Results: ChEMBL document CHEMBL1201862, “PubChem BioAssay data set” (2004)
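Step 1: Grow cells in 96-well plates. Step 2: Expose to compound for 48 hours at 5 concentrations. Step 3: Interpolate endpoints linearly; if unreached, use highest concentration. At the GI50, growth is halved.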 Activity calls are given as the source filed them. No stated cut-off is given here; in the data, active = GI50 up to about 1.1 µM and inactive = higher. *1 amine or outer side, *2 acyl side, *3 side chain or, on linkers, in order; H or OH if unused. Where a SMILES comes first, the peptide text is derived from it. Bridges are numbered along the chain shown (N, C = ends). [ ]: non-standard residue; d: D form. X36 = CC[C@H](C)[C@@H](N[*:1])[C@@H](O)CC(=O)O[C@H](C(=O)[C@H](C)C(=O)[*:2])C(C)C; NMeY = CN[C@@H](Cc1ccc(O)cc1)C(=O)O

What was measured:
Test in all cases: DTP human tumour cell line panel, 48 h
[1] = test system: MCF7
[2] = test system: MDA-MB-231
[3] = test system: OVCAR-5
[4] = test system: NCI-H23
[5] = test system: SNB-75
[6] = test system: Malme-3M
[7] = test system: UO-31
[8] = test system: T47D
[9] = test system: NCI/ADR-RES
[10] = test system: OVCAR-3
[11] = test system: RPMI-8226
[12] = test system: MOLT-4
[13] = test system: 786-0
[14] = test system: NCI-H226
[15] = test system: MDA-N
[16] = test system: U-251
[17] = test system: UACC-257
[18] = test system: NCI-H522
[19] = test system: SNB-19
[20] = test system: HOP-92
[21] = test system: HCT-15
[22] = test system: UACC-62
[23] = test system: MDA-MB-435
[24] = test system: HOP-62
[25] = test system: ACHN
[26] = test system: K562
[27] = test system: SF-295
[28] = test system: A498
[29] = test system: SK-MEL-28
[30] = test system: SF-268
[31] = test system: EKVX
[32] = test system: OVCAR-4
[33] = test system: DU-145
[34] = test system: PC-3
[35] = test system: KM12
[36] = test system: BT-549
[37] = test system: SN12C
[38] = test system: HCT-116
[39] = test system: SK-MEL-5
[40] = test system: COLO 205
[41] = test system: SK-MEL-2
[42] = test system: SF-539
[43] = test system: M14
[44] = test system: CAKI-1
[45] = test system: TK-10
[46] = test system: HCC 2998
[47] = test system: A549
[48] = test system: SK-OV-3
[49] = test system: NCI-H460
[50] = test system: IGROV-1
[51] = test system: RXF 393
[52] = test system: OVCAR-8
[53] = test system: HT-29
[54] = test system: CCRF-CEM
[55] = test system: Hs-578T
[56] = test system: SR
[57] = test system: SW-620
[58] = test system: LOX IMVI
[59] = test system: HL-60

COC(=O)c1cc(OCc2cc(OCc3ccc(Br)cc3)cc(OCc3ccc(Br)cc3)c2)cc(OCc2cc(OCc3ccc(Br)cc3)cc(OCc3ccc(Br)cc3)c2)c1
GI50 [1]: > 100 µM (inactive)
GI50 [2]: > 100 µM (inactive)
GI50 [3]: > 100 µM (inactive)
GI50 [4]: > 100 µM (inactive)
GI50 [5]: > 100 µM (inactive)
GI50 [6]: > 100 µM (inactive)
GI50 [7]: > 100 µM (inactive)
GI50 [8]: > 100 µM (inactive)
GI50 [9]: > 100 µM (inactive)
GI50 [10]: > 100 µM (inactive)
GI50 [11]: > 100 µM (inactive)
GI50 [12]: > 100 µM (inactive)
GI50 [13]: > 100 µM (inactive)
GI50 [14]: > 100 µM (inactive)
GI50 [15]: > 100 µM (inactive)
GI50 [16]: > 100 µM (inactive)
GI50 [17]: > 100 µM (inactive)
GI50 [18]: > 100 µM (inactive)
GI50 [19]: > 100 µM (inactive)
GI50 [20]: > 100 µM (inactive)
GI50 [21]: > 100 µM
GI50 [22]: > 100 µM (inactive)
GI50 [23]: > 100 µM (inactive)
GI50 [24]: > 100 µM (inactive)
GI50 [25]: > 100 µM (inactive)
GI50 [26]: > 100 µM (inactive)
GI50 [27]: > 100 µM (inactive)
GI50 [28]: > 100 µM (inactive)
GI50 [29]: > 100 µM (inactive)
GI50 [30]: > 100 µM (inactive)
GI50 [31]: > 100 µM (inactive)
GI50 [32]: > 100 µM (inactive)
GI50 [33]: > 100 µM (inactive)
GI50 [34]: > 100 µM (inactive)
GI50 [35]: > 100 µM (inactive)
GI50 [36]: > 100 µM (inactive)
GI50 [37]: > 100 µM (inactive)
GI50 [38]: > 100 µM (inactive)
GI50 [39]: > 100 µM (inactive)
GI50 [40]: > 100 µM (inactive)
GI50 [41]: > 100 µM (inactive)
GI50 [42]: 14.1 µM (inactive)
GI50 [43]: > 100 µM (inactive)
GI50 [44]: > 100 µM (inactive)
GI50 [45]: > 100 µM (inactive)
GI50 [46]: > 100 µM (inactive)
GI50 [47]: > 100 µM (inactive)
GI50 [48]: > 100 µM (inactive)
GI50 [49]: > 100 µM (inactive)

COc1cc2c(cc1O)NC(=O)[C@@H]1C[C@@H](O)CN1C2=O
GI50 [1]: > 100 µM (inactive)
GI50 [2]: > 100 µM (inactive)
GI50 [50]: > 100 µM (inactive)
GI50 [3]: > 100 µM (inactive)
GI50 [4]: > 100 µM (inactive)
GI50 [5]: > 100 µM (inactive)
GI50 [6]: > 100 µM (inactive)
GI50 [7]: 64.4 µM (inactive)
GI50 [8]: > 100 µM (inactive)
GI50 [9]: 11.4 µM (inactive)
GI50 [51]: > 100 µM (inactive)
GI50 [52]: 98.2 µM (inactive)
GI50 [10]: 29.2 µM (inactive)
GI50 [11]: 45.6 µM (inactive)
GI50 [53]: 72.6 µM (inactive)
GI50 [12]: 37.6 µM (inactive)
GI50 [13]: 52 µM (inactive)
GI50 [14]: > 100 µM (inactive)
GI50 [16]: 79.3 µM (inactive)
GI50 [17]: > 100 µM (inactive)
GI50 [18]: 33.8 µM (inactive)
GI50 [19]: > 100 µM (inactive)
GI50 [20]: > 100 µM (inactive)
GI50 [21]: 50.7 µM
GI50 [22]: > 100 µM (inactive)
GI50 [23]: 91.6 µM (inactive)
GI50 [24]: 27.4 µM (inactive)
GI50 [54]: 28.4 µM (inactive)
GI50 [25]: 74.6 µM (inactive)
GI50 [26]: 57.7 µM (inactive)
GI50 [27]: 27 µM (inactive)
GI50 [55]: 43.8 µM (inactive)
GI50 [28]: > 100 µM (inactive)
GI50 [29]: > 100 µM (inactive)
GI50 [30]: 88.1 µM (inactive)
GI50 [31]: > 100 µM (inactive)
GI50 [32]: > 100 µM (inactive)
GI50 [33]: > 100 µM (inactive)
GI50 [56]: 39.9 µM (inactive)
GI50 [34]: 43.8 µM (inactive)
GI50 [57]: 64.3 µM (inactive)
GI50 [35]: 53.6 µM (inactive)
GI50 [36]: 86.1 µM (inactive)
GI50 [37]: > 100 µM (inactive)
GI50 [38]: 49 µM (inactive)
GI50 [39]: 58.1 µM (inactive)
GI50 [58]: 40.2 µM (inactive)
GI50 [40]: > 100 µM (inactive)
GI50 [41]: > 100 µM (inactive)
GI50 [42]: 43.8 µM (inactive)
GI50 [43]: 72.1 µM (inactive)
GI50 [44]: 78 µM (inactive)
GI50 [45]: > 100 µM (inactive)
GI50 [46]: > 100 µM (inactive)
GI50 [47]: > 100 µM (inactive)
GI50 [48]: > 100 µM (inactive)
GI50 [49]: 72.4 µM (inactive)

CC[C@H](C)[C@H]1NC(=O)[C@@H](N)[C@@H](C)OC(=O)[C@H](Cc2ccc(OC)cc2)N(C)C(=O)[C@@H]2CCCN2C(=O)[C@H](CC(C)C)NC(=O)[C@@H](C)C(=O)[C@H](C(C)C)OC(=O)C[C@@H]1O (H-T[X36]LP[NMeY](Me); ester 1-C)
GI50 [1]: 33.7 µM (inactive)
GI50 [50]: 10.1 µM (inactive)
GI50 [3]: 31.5 µM (inactive)
GI50 [4]: 35.4 µM (inactive)
GI50 [5]: 13.2 µM (inactive)
GI50 [6]: 31.7 µM (inactive)
GI50 [7]: 6.62 µM (inactive)
GI50 [9]: > 100 µM (inactive)
GI50 [51]: 8.13 µM (inactive)
GI50 [52]: 50.7 µM (inactive)
GI50 [10]: 20.6 µM (inactive)
GI50 [11]: 12.7 µM (inactive)
GI50 [53]: 3.67 µM (inactive)
GI50 [12]: 6.85 µM (inactive)
GI50 [13]: 93.8 µM (inactive)
GI50 [14]: 37.2 µM (inactive)
GI50 [16]: 29.5 µM (inactive)
GI50 [17]: 15.6 µM (inactive)
GI50 [18]: 10.5 µM (inactive)
GI50 [19]: 28.7 µM (inactive)
GI50 [21]: 36.7 µM
GI50 [22]: 29.9 µM (inactive)
GI50 [23]: 15.5 µM (inactive)
GI50 [24]: 14.7 µM (inactive)
GI50 [54]: 22.3 µM (inactive)
GI50 [25]: 29.1 µM (inactive)
GI50 [26]: 18.4 µM (inactive)
GI50 [27]: 29.4 µM (inactive)
GI50 [55]: 12.2 µM (inactive)
GI50 [29]: 16.8 µM (inactive)
GI50 [30]: 49.5 µM (inactive)
GI50 [31]: 44.2 µM (inactive)
GI50 [32]: 54.5 µM (inactive)
GI50 [56]: 16.3 µM (inactive)
GI50 [34]: 14.3 µM (inactive)
GI50 [57]: 19.5 µM (inactive)
GI50 [35]: 9.35 µM (inactive)
GI50 [36]: 20.2 µM (inactive)
GI50 [37]: 29.6 µM (inactive)
GI50 [39]: 12.9 µM (inactive)
GI50 [58]: 21.6 µM (inactive)
GI50 [41]: 46 µM (inactive)
GI50 [42]: 26.8 µM (inactive)
GI50 [43]: 4.84 µM (inactive)
GI50 [59]: 11.7 µM (inactive)
GI50 [45]: 36.7 µM (inactive)
GI50 [46]: 54.1 µM (inactive)
GI50 [47]: 19.3 µM (inactive)
GI50 [48]: 35.6 µM (inactive)
GI50 [49]: 30.3 µM (inactive)
